In article PMC3606118, “Salvianolic Acid A, a Novel Matrix Metalloproteinase-9 Inhibitor, Prevents Cardiac Remodeling in Spontaneously Hypertensive Rats” (PLoS ONE, 2013):

Tests used:
[1] = system: neonatal cardiac fibroblast; test: CCK-8 proliferation of neonatal cardiac fibroblast; format: cell-based, Wistar rats; conditions: 10 µmol/L SalA with MMP-9 CD, 24 h
Method: (§1) Primary cardiac fibroblast was obtained from neonatal rats and National Institutes of Health (NIH) Guide for the Care and Use of Laboratory Animals was followed throughout. Wistar rats (2–4 day old) were sacrificed by cervical dislocation; ventricles were minced and digested with 0.1% trypsin at 37°C for 8 min. The liberated cells were collected by centrifugations; non-digested chunk materials were further digested in 0.1% trypsin for an additional 8 min. This digestion procedure was repeated 3–4 times. All the liberated cells were pelleted by centrifugation at 1,000 rpm for 10 min, re-suspended in DMEM containing 10% fetal bovine serum (FBS), and cultured in a 100-mm noncoated culture flask at 37°C with 5% CO2 for 2 h. Adherent cardiac fibroblasts were collected and maintained in DMEM supplemented with 10% FBS, 100 U/mL penicillin, 100 µg/mL streptomycin [12]. Cardiac fibroblasts were treated by vehicle (Con); 200 nmol/L MMP-9 CD (MMP-9); 200 nmol/L MMP-9 CD plus 1 µmol/L SalA [MMP-9/SalA(1)]; or 200 nmol/L MMP-9 CD plus 10 µmol/L SalA [MMP-9/SalA(10)] for the following research. All the detections were conducted after 24 h treatment.
Cell proliferation assay was performed using Cell Counting Kit (CCK-8 kit, Dojindo Laboratory, Japan) as described previously. Absorbance was detected at 450 nm (reference 650 nm) using a microplate reader (Tecan GENios, Austria).

[2] = system: neonatal cardiac fibroblast; test: Soluble collagen secretion (picrosirius red assay); format: cell-based, Wistar rats; conditions: 24 h, p<0.05
Method: as §1, with “All the detections were conducted after 24 h treatment.” left out
Soluble collagen secreted by neonatal cardiac fibroblast was measured using picrosirius red assay with minor modification, [15]. […] 200 µL solution was transferred to 96 well plate for measuring absorbance at 595 nm using a UV spectrophotometer (Tecan GENios, Austria).

MMP-2 = biological target: T1, MMP-2 (Rattus norvegicus, UniProt P33436); test: In-gel gelatin zymography of SHR heart, MMP-2; format: in vivo, SHR rats; conditions: SalA i.p. everyday for 4 weeks
T1 construct: twenty µg protein from tissue; from tissue; host or cells: heart of spontaneously hypertensive rats (SHR)
T1 sequence (P33436 110-662): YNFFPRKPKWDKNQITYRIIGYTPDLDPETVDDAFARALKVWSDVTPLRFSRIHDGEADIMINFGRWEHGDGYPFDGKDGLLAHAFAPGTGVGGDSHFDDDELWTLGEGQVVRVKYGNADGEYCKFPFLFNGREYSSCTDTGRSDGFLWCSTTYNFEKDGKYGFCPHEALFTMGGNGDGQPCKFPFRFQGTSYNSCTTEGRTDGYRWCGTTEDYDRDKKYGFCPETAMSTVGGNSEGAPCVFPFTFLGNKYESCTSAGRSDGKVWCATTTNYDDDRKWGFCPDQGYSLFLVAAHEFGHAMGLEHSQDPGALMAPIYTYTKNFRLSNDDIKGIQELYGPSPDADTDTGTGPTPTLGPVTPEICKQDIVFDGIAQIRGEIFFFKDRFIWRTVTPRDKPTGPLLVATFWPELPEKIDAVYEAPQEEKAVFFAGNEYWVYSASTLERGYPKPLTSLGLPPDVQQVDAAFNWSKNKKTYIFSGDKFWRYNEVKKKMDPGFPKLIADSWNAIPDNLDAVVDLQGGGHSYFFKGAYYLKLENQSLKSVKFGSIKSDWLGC

MMP-9 = biological target: T2, MMP-9 (Rattus norvegicus, UniProt P50282); test: In-gel gelatin zymography of SHR heart, MMP-9; format: in vivo, SHR rats; conditions: SalA i.p. everyday for 4 weeks
T2 construct: twenty µg protein from tissue; from tissue; host or cells: heart of spontaneously hypertensive rats (SHR)
T2 sequence (P50282 108-708): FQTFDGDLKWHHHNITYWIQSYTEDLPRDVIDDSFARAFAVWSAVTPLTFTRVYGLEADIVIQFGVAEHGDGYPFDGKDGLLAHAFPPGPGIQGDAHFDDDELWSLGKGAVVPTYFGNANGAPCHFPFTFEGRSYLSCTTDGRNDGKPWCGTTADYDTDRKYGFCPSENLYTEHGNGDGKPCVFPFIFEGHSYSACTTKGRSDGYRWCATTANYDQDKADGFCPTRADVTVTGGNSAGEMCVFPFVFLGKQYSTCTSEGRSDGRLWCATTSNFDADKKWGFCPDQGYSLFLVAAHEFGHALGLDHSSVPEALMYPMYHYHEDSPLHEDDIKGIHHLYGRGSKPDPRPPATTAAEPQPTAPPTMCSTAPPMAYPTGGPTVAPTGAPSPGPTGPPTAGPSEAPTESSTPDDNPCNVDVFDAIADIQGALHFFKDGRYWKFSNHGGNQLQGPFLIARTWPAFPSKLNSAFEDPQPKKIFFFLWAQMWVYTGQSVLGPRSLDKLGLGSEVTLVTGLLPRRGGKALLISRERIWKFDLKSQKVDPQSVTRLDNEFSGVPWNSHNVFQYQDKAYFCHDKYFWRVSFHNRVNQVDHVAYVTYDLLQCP
Method: The enzymatic activities of H9c2 cells or tissue samples were detected by in-gel gelatin zymography. In brief, twenty µg protein from tissue or twenty microliter culture supernatant of H9c2 cells with different treatments was electrophoresed in 10% SDS-PAGE containing 1% gelatin as MMP substrate under non-reducing conditions. After electrophoresis, the gel was washed in 1% Triton X-100 for 1 h, rinsed in water, and incubated overnight in substrate buffer containing 50 mmol/L Tris-HCl, 5 mmol/L CaCl2, and 150 mmol/L NaCl (pH 7.5) at 37°C with gentle shaking. Then, the gel was stained in 0.1% Coomassie Blue R-250 and destained using 10% methanol, 5% acetic acid solution. The gel was scanned using a MiniBis system (DNR Bio-Imaging Systems Ltd) and the detected protein species corresponding to the expected molecular weight of MMP-9 was visualized.
2-month old male SHR rats were given rodent chow containing 8% NaCl 4 weeks before SaA treatment to the end of the experiment. Rats were divided into four groups (20 per group) and were injected intraperitoneally with saline or SalA everyday at the indicated dose for 4 weeks. The four groups were named as SalA (0 mg/kg), SalA (2.5 mg/kg), SalA (5 mg/kg), SalA (10 mg/kg) basing on the dose of SalA, respectively.

MMP-9 CD = biological target: T3, MMP-9 CD (Homo sapiens, UniProt P14780, DEL217-390); test: Real time binding by surface plasmon resonance (Biacore); conditions: steady state affinity fit model; immobilized MMP-9 CD, 25°C; read-out: equilibrium dissociation constant (KD)
T3 construct: corresponding to residues 107–216 and 391–444; made in house
T3 sequence (P14780 with tags, fused parts or gaps DEL217-390 limits assumed): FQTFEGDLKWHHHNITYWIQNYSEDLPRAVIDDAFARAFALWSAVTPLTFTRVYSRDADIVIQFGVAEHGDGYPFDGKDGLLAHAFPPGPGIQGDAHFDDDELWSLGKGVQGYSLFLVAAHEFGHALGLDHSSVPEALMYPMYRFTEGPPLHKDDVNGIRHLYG
Method: DNA fragments encoding the catalytic domain of MMP-9 (MMP-9 CD, corresponding to residues 107–216 and 391–444) were constructed and subcloned into a pET-15b vector (Novagen). […]. Surface plasmon resonance analysis was performed using Biacore 3000 (Biacore AB). In brief, MMP-9 CD protein (5.8 µmol/L) in 10 mmol/L sodium acetate buffer (pH 3.73) was covalently immobilized on the hydrophilic carboxymethylated dextran matrix of the CM5 sensor chip (BIAcore AB) using standard primary amine coupling procedure. Phenolic acid at various concentrations in HBS-EP running buffer (10 mmol/L HEPES pH 7.4, 150 mmol/L NaCl, 3.4 mmol/L EDTA and 0.005% surfactant P20) were injected at a constant flow rate of 30 µL/min at 25°C. All data were analyzed by BIAevaluation software and the sensorgrams were processed by automatic correction for nonspecific bulk refractive index effects.

O=C(/C=C/c1ccc(O)c(O)c1/C=C/c1ccc(O)c(O)c1)O[C@H](Cc1ccc(O)c(O)c1)C(=O)O [SalA, salvianolic acid A]
proliferation of neonatal cardiac fibroblast [1]: considerable promotion
net collagen production in the presence of MMP-9 CD ([2]; 1 µmol/L SalA): significantly attenuated
net collagen production in the presence of MMP-9 CD ([2]; 10 µmol/L SalA): significantly attenuated
MMP-2 activity in heart of SHRs (MMP-2): no regulation
MMP-9 activity in heart of SHRs (MMP-9): inhibited by SalA significantly
Kd (MMP-9 CD): 800 nM
